Columns and labels:
[1] = system: α1-GABAA receptor; test: Ligand-binding assay, competitive with radiolabeled flumazenil, cerebellum membranes; settings: Affinity for α1-GABAA receptor, rat cerebellum membranes, radiolabeled flumazenil 1 nM; for % Inhibition 10^−5M: 10^-5M test compound; for % Inhibition 10^−7M: 10^-7M test compound
Protocol: (§1) Ligand-binding assays. Determination of the affinity of test compounds for α1- and α2-GABAA receptor.
(§2) Male Sprague-Dawley rats weighing 200-250 g at the time of experiment were used. After decapitation of the animal, the cerebellum (tissue that mostly contains α1-GABAA receptor) and spinal cord (tissue that mostly contains α2-GABAA receptor) were removed. The membranes were prepared according to the method by J. Lameh et al. (Prog. Neuro-Psychopharmacol. Biol. Psychiatry, 24, 979-991, 2000) and H. Noguchi et al. (Eur. J. Pharm., 434, 21-28, 2002). Once the tissues weighed, they were suspended in 50 mM Tris.HCl (pH 7.4), 1:40 (w/v), or sucrose 0.32 M in the case of spinal cord, homogenized and then centrifuged at 20,000 g for 10 min at 7° C. twice. The resulting pellet was resuspended under the same conditions and centrifuged again. The pellet was finally resuspended on a minimum volume and kept at −80° C. overnight. On the next day, the process was repeated until the final pellet was resuspended at a ratio of 1:10 (w/v) in the case of cerebellum and at a ratio of 1:5 (w/v) in the case of spinal cord.
(§3) Affinity was determined by competitive tests using radiolabeled flumazenil as ligand. The tests were performed according to the methods described by S. Arbilla et al. (Eur. J. Pharmacol., 130, 257-263, 1986); and Y. Wu et al. (Eur. J. Pharmacol., 278, 125-132, 1995) using 96-well microtiter plates. The membranes containing the study receptors, flumazenil (radiolabeling at a final concentration of 1 nM) and ascending concentrations of test compounds (in a total volume of 230 μL in 50 mM [ph 7.4] Tris.HCl buffer) were incubated. Simultaneously, the membranes were only incubated with the radiolabeled flumazenil (total binding, 100%) and in the presence of an elevated concentration of unradiolabeled flumazenil (non-specific binding, % estimation of radiolabeled ligand). The reactions started on adding the radiolabeled ligand followed by incubation for 60 minutes at 4° C. At the end of the incubation period, 200 μL of reaction were transferred to a multiscreen plate (Millipore) and filtered using a vacuum manifold and then washed three times with cold test buffer. The multiscreen plates were equipped with a GF/B filter that retained the membranes containing the receptors and the radiolabeled ligand which has been bound to the receptors. After washing, the plates were left till dry. Once dried, scintillation liquid was added and left under stirring overnight. The next day the plates were counted using a Perkin-Elmer Microbeta scintillation counter.
(§4) For analysis of the results the percentage of specific binding for every concentration of test compound was calculated as follows:
(§5) % specific binding=(X−N/T−N)×100
(§6) where, X: amount of bound ligand for every concentration of compound. T: total binding, maximum amount bound to the radiolabeled ligand. N: non-specific binding, amount of radiolabeled ligand bound in a non-specific way irrespective of the receptor used.
(§7) Every concentrations of compound were tested in triplicate and their mean values were used to determine the experimental values of % specific binding versus the concentration of compound. Affinity data are expressed as % inhibition at 10^-5M and 10^-7M concentrations.

[2] = system: mice; test: In vivo predictive sedation-hypnosis test (inhibition of traveled distance); parameters: species or system mouse; settings: male CD1 mice; single equimolecular intraperitoneal doses; traveled distance over 30 min after dosing (first 5 min discarded) versus control
Protocol: In vivo determination of predictive sedative-hypnotic action.
The in vivo effects of these compounds were assessed by a predictive sedation-hypnosis test in mice (D. J. Sanger et al., Eur. J. Pharmacol., 313, 35-42, 1996; and G. Griebel et al., Psychopharmacology, 146, 205-213, 1999).
Groups of 5-8 male CD1 mice, weighing 22-26 g at the time of test, were used. The test compounds were administered in single equimolecular intraperitoneal doses, suspended in 0.25% agar with one drop of Tween in a volume of 10 mL/kg. Control animals received the vehicle alone. Using a Smart System (Panlab, S. L., Spain) the traveled distance in cm is recorded for each mouse at 5-min intervals during a period of 30 minutes after dosing. The inhibition percentage of traveled distance of treated animals versus control animals (the first 5 min were discarded) was calculated.

[3] = system: α2-GABAA receptor; test: Ligand-binding assay, competitive with radiolabeled flumazenil, spinal cord membranes; settings: Affinity for α2-GABAA receptor, rat spinal cord membranes, radiolabeled flumazenil 1 nM; for % Inhibition 10^−5M: 10^-5M test compound; for % Inhibition 10^−7M: 10^-7M test compound
Protocol: as §1, §2, §3, §4, §5, §6, §7

Row | Structure (SMILES) | % Inhibition 10^−5M [1] [%] | % Inhibition 10^−7M [1] [%] | % Inhibition Motor Activity [2] [%] | % Inhibition 10^−5M [3] [%] | % Inhibition 10^−7M [3] [%]
1 | Cc1ccc(-c2nc3ccc(C)cn3c2CN(C)C(=O)c2ccc3ccccc3n2)cc1 [Example 35, Quinoline-2-carboxylic acid methyl-(6-methyl-2-p-tolyl-imidazo[1,2-a]pyridin-3-ylmethyl)-amide] | 67.1 | 31.8 | 33.19 | 3.7 | 0.0
2 | C#CCN(Cc1c(-c2ccc(C)cc2)nc2ccc(C)cn12)C(=O)C1CC1 [Example 42, Cyclopropanecarboxylic acid (6-methyl-2-p-tolyl-imidazo[1,2-a]pyridin-3-ylmethyl)-prop-2-ynyl-amide] | 92.7 | 12.4 | 40.35 | 49.7 | 0.0
3 | Cc1ccc(-c2nc3ccc(C)cn3c2CNC(=O)C2CCC2)cc1 [Example 58, Cyclobutanecarboxylic acid (6-methyl-2-p-tolyl-imidazo[1,2-a]pyridin-3-ylmethyl)-amide] | 98.8 | 6.5 | 94.25 | 78.6 | 9.2
4 | Cc1ccc(-c2nc3ccc(C)cn3c2CNC(=O)c2cnc(C)cn2)cc1 [Example 61, 5-Methyl-pyrazine-2-carboxylic acid (6-methyl-2-p-tolyl-imidazo[1,2-a]pyridin-3-ylmethyl)-amide] | 100.0 | 85.4 | 90.55 | 98.5 | 48.3
5 | Cc1ccc(-c2nc3ccc(C)cn3c2CNC(=O)c2cccnc2)cc1 [Example 63, N-(6-Methyl-2-p-tolyl-imidazo[1,2-a]pyridin-3-ylmethyl)-nicotinamide] | 98.5 | 36.1 | 74.86 | 89.8 | 13.4
6 | Cc1ccc(-c2nc3ccc(C)cn3c2CNC(=O)C2=NNC(=O)CC2)cc1 [Example 65, 6-Oxo-1,4,5,6-tetrahydro-pyridazine-3-carboxylic acid (6-methyl-2-p-tolyl-imidazo[1,2-a]pyridin-3-ylmethyl)-amide] | 99.5 | 83.9 | 85.22 | 95.4 | 39.1
7 | Cc1ccc(-c2nc3ccc(C)cn3c2CNC(=O)c2cc(C)n(C)n2)cc1 [Example 67, 1,5-Dimethyl-1H-pyrazole-3-carboxylic acid (6-methyl-2-p-tolyl-imidazo[1,2-a]pyridin-3-ylmethyl)-amide] | 99.6 | 84.7 | 78.09 | 96.6 | 47.3
8 | Cc1ccc(-c2nc3ccc(C)cn3c2CNC(=O)c2csc(C)n2)cc1 [Example 69, 2-Methyl-thiazole-4-carboxylic acid (6-methyl-2-p-tolyl-imidazo[1,2-a]pyridin-3-ylmethyl)-amide] | 100.4 | 93.4 | 78.41 | 98.8 | 74.1
9 | Cc1ccc(-c2nc3ccc(C)cn3c2CNC(=O)c2csnn2)cc1 [Example 70, [1,2,3]Thiadiazole-4-carboxylic acid (6-methyl-2-p-tolyl-imidazo[1,2-a]pyridin-3-ylmethyl)-amide] | 100.4 | 79.7 | 90.77 | 97.7 | 25.6
10 | Cc1ccc(-c2nc3ccc(C)cn3c2CNC(=O)Cc2cccs2)cc1 [Example 71, N-(6-Methyl-2-p-tolyl-imidazo[1,2-a]pyridin-3-ylmethyl)-2-thiophen-2-yl-acetamide] | 96.4 | 21.9 | 94.08 | 67.8 | 7.2
11 | Cc1ccc(-c2nc3ccc(C)cn3c2CNC(=O)c2cc(C)on2)cc1 [Example 72, 5-Methyl-isoxazole-3-carboxylic acid (6-methyl-2-p-tolyl-imidazo[1,2-a]pyridin-3-ylmethyl)-amide] | 99.8 | 73.4 | 73.81 | 95 | 33.1
12 | Cc1ccc(-c2nc3ccc(C)cn3c2CNC(=O)c2cn(C)cn2)cc1 [Example 74, 1-Methyl-1H-imidazole-4-carboxylic acid (6-methyl-2-p-tolyl-imidazo[1,2-a]pyridin-3-ylmethyl)-amide] | 99.9 | 95.3 | 77.37 | 98.6 | 63.0
13 | Cc1ccc(-c2nc3ccc(C)cn3c2CNC(=O)c2nccn2C)cc1 [Example 78, 1-Methyl-1H-imidazole-2-carboxylic acid (6-methyl-2-p-tolyl-imidazo[1,2-a]pyridin-3-ylmethyl)-amide] | 100.2 | 97.9 | 88.10 | 98.8 | 85.9
14 | Cc1ccc(-c2nc3ccc(C)cn3c2CNC(=O)c2cscn2)cc1 [Example 81, Thiazole-4-carboxylic acid (6-methyl-2-p-tolyl-imidazo[1,2-a]pyridin-3-ylmethyl)-amide] | 99.6 | 69.9 | 84.31 | 94.3 | 1.5
15 | Cc1ccc(-c2nc3ccc(C)cn3c2CNC(=O)c2nc(C)oc2C)cc1 [Example 83, 2,5-Dimethyl-oxazole-4-carboxylic acid (6-methyl-2-p-tolyl-imidazo[1,2-a]pyridin-3-ylmethyl)-amide] | 100.0 | 93.6 | 93.22 | 93.2 | 71.1
